Test results taken from US20240261417A1, “SOS1 DEGRADING AGENT AND PREPARATION METHOD THEREFOR AND APPLICATION THEREOF” (SHANGHAI LEADINGTAC PHARMACEUTICAL CO. LTD., priority 2021, published 2024).
Read-outs that look alike come from different tables or passages of the source.

Biological target: T1, SOS1 protein (Homo sapiens, UniProt Q07889)
T1 sequence (Q07889 1-1333): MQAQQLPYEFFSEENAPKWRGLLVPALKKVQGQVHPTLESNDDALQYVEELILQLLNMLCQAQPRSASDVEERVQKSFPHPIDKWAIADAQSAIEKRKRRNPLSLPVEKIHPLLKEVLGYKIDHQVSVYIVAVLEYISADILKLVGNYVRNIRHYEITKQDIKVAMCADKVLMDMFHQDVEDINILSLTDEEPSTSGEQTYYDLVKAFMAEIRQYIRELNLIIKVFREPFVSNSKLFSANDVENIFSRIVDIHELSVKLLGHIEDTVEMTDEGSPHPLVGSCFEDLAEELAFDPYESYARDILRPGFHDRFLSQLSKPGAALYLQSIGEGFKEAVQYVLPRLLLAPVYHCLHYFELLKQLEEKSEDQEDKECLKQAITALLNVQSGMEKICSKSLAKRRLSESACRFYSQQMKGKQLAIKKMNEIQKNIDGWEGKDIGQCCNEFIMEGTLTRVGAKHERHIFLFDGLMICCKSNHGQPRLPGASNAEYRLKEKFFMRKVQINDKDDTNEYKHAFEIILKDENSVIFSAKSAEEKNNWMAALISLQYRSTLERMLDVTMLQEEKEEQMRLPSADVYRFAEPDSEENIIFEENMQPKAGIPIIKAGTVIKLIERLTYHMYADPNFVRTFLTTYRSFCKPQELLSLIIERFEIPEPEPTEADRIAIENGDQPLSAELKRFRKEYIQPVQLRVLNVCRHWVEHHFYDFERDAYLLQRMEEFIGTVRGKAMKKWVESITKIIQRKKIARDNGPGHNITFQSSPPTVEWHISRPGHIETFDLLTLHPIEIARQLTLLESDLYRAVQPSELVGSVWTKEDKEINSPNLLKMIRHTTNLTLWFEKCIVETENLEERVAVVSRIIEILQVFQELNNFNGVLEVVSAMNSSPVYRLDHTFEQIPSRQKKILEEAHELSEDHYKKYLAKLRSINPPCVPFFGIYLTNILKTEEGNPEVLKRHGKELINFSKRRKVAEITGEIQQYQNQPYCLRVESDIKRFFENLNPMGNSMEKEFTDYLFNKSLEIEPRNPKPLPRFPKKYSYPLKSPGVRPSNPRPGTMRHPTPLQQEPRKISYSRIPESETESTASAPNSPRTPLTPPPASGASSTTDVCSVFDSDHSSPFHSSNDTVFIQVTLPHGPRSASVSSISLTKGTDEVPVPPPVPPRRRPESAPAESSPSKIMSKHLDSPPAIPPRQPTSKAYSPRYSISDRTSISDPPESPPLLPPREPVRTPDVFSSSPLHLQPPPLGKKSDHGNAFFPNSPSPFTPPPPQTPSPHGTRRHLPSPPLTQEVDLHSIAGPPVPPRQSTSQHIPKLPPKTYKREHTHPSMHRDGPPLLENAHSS
Experiment: SOS1 degradation assay (Western blot), NCI-H358 cells
Format: cell-based
Set-up: The degradation of SOS1 by the compounds was investigated on KRAS G12C mutant human non-small cell lung cancer cells NCI-H358; host or cells: NCI-H358 (human cancer cell lines)
Conditions: for DC50: read-out: NCI-H358 (G12C) DC50
Procedure: The specific procedures were as follows:
0.95 mL of cells were seeded into each well of a 24-well cell culture plate to achieve a cell density of 5×10^5 cells/well; the cell plate was incubated in an incubator at 37° C. with 5% CO2 overnight. Then 50 μL of the compound solution after dilution was added to each of the wells with the corresponding cells, so that the final concentration of the compound was in a range of 0.03-3000 nM. […] After dosing, the cell plate was incubated in an incubator at 37° C. with 5% CO2 for 24 h. […] After the plate was left to stand on ice for 30 min, the protein lysate in each well was transferred to a 1.5 mL centrifuge tube and centrifuged at 15000 g for 20 min at 4° C. The cell lysate supernatant after centrifugation was cryopreserved at −80° C. for testing and was used for determining the degradation level of the SOS1 protein by a WB method. The concentration of total protein in the cell lysate supernatant was determined using the BCA Protein Quantification Kit (Tiangen, PA115-02).
The concentration of total protein in the cell lysate was determined by BCA. The total protein was adjusted to 0.5 μg/μL with PBS and 5× SDS-PAGE protein loading buffer (Beyotime, P0015L), incubated in a water bath at 100° C. for 15 min, incubated in an ice bath on ice for 5 min, centrifuged at 14000 g for 1 min at 4° C., and mixed well as a loading sample for WB. Protein electrophoresis was performed on a precast gel (KeyGEN, KGMGO10W15) with a loading volume of 10 μL (total protein: 5 μg) using a Tris-MOPS-SDS running solution (Adamas, P1598253) at a constant voltage of 120 V for 55 min. After the electrophoresis, the protein on the gel strip was transferred to a PVDF membrane at a constant current of 250 mA for 65 min. After the membrane transfer, the membrane was incubated in 1× QuickBlock blocking buffer (Beyotime, P0235) for 30 min at room temperature. […] The protein map was subjected to gray value analysis by the chemiluminescence imaging system from Clinx. […] Then the degradation rate was calculated by comparing the gray correction value with the gray correction value of the control group. Then nonlinear curve fitting was performed by GraphPad Prism 8 in the logarithmic concentration-inhibition rate to obtain the DC50 and Dmax values of the compounds.

[1] = SOS1 degradation, NCI-H358 cells, 24 h, Western blot
[2] = SOS1 degradation, NCI-H358 cells, 24 h, Western blot, read-out: NCI-H358 (G12C) Dmax

SMILES | DC50 [1] [µM] | Dmax [2] [%] | Dmax (NCI-H358, read-out: NCI-H358 (G12C) Dmax) [%] | NCI-H358 (G12C) Dmax [1]
COc1ccc(C(=O)N2CCC(COCCC3CCN(C(=O)[C@H]4CC[C@H](c5cc6c(N[C@H](C)c7cc(N)cc(C(F)(F)F)c7)nc(C)nc6cn5)CC4)CC3)CC2)cc1N1CCC(=O)NC1=O [Example 36, 1-(5-(4-((2-(1-((1R,4R)-4-(4-(((R)-1-(3-amino-5-(trifluoromethyl)phenyl)ethyl)amino)-2-methylpyrido[3,4-d]pyrimidin-6-yl)cyclohexane-1-carbonyl)piperidin-4-yl)ethoxy)methyl)piperidine-1-carbonyl)-2-methoxyphenyl)dihydropyrimidine-2,4(1H,3H)-dione] | 0.1 to 0.5 | 50 to 80 |  | 
COc1cc2nc(C)nc(N[C@H](C)c3cc(NC(C)C)cc(C(F)(F)F)c3)c2cc1[C@H]1CC[C@H](C(=O)N2CCN(CC3CCC4(CC3)CCN(C(=O)c3ccc(Cl)c(N5CCC(=O)NC5=O)c3)CC4)CC2)CC1 [Example 18, 1-(2-chloro-5-(9-((4-((1R,4R)-4-(4-(((R)-1-(3-(isopropylamino)-5-(trifluoromethyl)phenyl)ethyl)amino)-7-methoxy-2-methylquinazolin-6-yl)cyclohexane-1-carbonyl)piperazin-1-yl)methyl)-3-azaspiro[5.5]undecane-3-carbonyl)phenyl)dihydropyrimidine-2,4(1H,3H)-dione] | 1 to 10 |  | < 30 | 
CCNc1cc([C@@H](C)Nc2nc(C)nc3cc(OC)c([C@H]4CC[C@H](C(=O)N5CCN(CC6CCC7(CC6)CCN(C(=O)c6ccc(Cl)c(N8CCC(=O)NC8=O)c6)CC7)CC5)CC4)cc23)cc(C(F)(F)F)c1 [Example 35, 1-(2-chloro-5-(9-((4-((1R,4R)-4-(4-(((R)-1-(3-(ethylamino)-5-(trifluoromethyl)phenyl)ethyl)amino)-7-methoxy-2-methylquinazolin-6-yl)cyclohexane-1-carbonyl)piperazin-1-yl)methyl)-3-azaspiro[5.5]undecane-3-carbonyl)phenyl)dihydropyrimidine-2,4(1H,3H)-dione] | 1 to 10 |  |  | C (when 30≤Dmax (%)<50, the level was C)
COc1cc2nc(C)nc(N[C@H](C)c3cc(N)cc(C(F)(F)F)c3)c2cc1[C@H]1CC[C@H](C(=O)N2CCC(CC3CCC4(CC3)CCN(C(=O)c3ccc(Cl)c(N5CCC(=O)NC5=O)c3)CC4)CC2)CC1 [Example 8, 1-(5-(9-((1-((1R,4R)-4-(4-(((R)-1-(3-amino-5-(trifluoromethyl)phenyl)ethyl)amino)-7-methoxy-2-methylquinazolin-6-yl)cyclohexane-1-carbonyl)piperidin-4-yl)methyl)-3-azaspiro[5.5]undecane-3-carbonyl)-2-chlorophenyl)dihydropyrimidine-2,4(1H,3H)-dione] | 0.05 to 0.1 | 80 to 100 |  | 
[2H]C1([2H])CC(OCC2CCN(C(=O)c3ccc(Cl)c(N4CCC(=O)NC4=O)c3)CC2)CC([2H])([2H])N1C(=O)[C@H]1CC[C@H](c2cc3c(N[C@H](C)c4cc(N)cc(C(F)(F)F)c4)nc(C)nc3cc2OC)CC1 [Example 40, 1-(5-(4-(((1-((1R,4R)-4-(4-(((R)-1-(3-amino-5-(trifluoromethyl)phenyl)ethyl)amino)-7-methoxy-2-methylquinazolin-6-yl)cyclohexane-1-carbonyl)piperidin-4-yl-2,2,6,6-d4)oxy)methyl)piperidine-1-carbonyl)-2-chlorophenyl)dihydropyrimidine-2,4(1H,3H)-dione] | 1 to 10 | < 30 |  | 
COc1cc2nc(C)nc(N[C@H](C)c3cc(N)cc(C(F)(F)F)c3)c2cc1OC1CCN(CC2CCC3(CC2)CCN(C(=O)c2ccc(Cl)c(N4CCC(=O)NC4=O)c2)CC3)CC1 [Example 6, (R)-1-(5-(9-((4-((4-((1-(3-amino-5-(trifluoromethyl)phenyl)ethyl)amino)-7-methoxy-2-methylquinazolin-6-yl)oxy)piperidin-1-yl)methyl)-3-azaspiro[5.5]undecane-3-carbonyl)-2-chlorophenyl)dihydropyrimidine-2,4(1H,3H)-dione] | 1 to 10 | 30 to 50 |  | 

More lines, main results first:

DC50 [1] [µM] | Dmax [2] [%] | SMILES | Dmax (NCI-H358, read-out: NCI-H358 (G12C) Dmax) [%] | NCI-H358 (G12C) Dmax [1]
0.1 to 0.5 | 80 to 100 | COc1cc2nc(C)nc(N[C@H](C)c3cc(-c4c(Cl)cccc4CN(C)C)cs3)c2cc1[C@H]1CC[C@H](C(=O)N2CCC(CCOCC3CCN(c4ccc5c(c4)C(=O)N(C4CCC(=O)NC4=O)C5=O)CC3)CC2)CC1 (some centres unmarked) [Example 41] |  | 
1 to 10 | 30 to 50 | COc1cc2nc(C)nc(N[C@H](C)c3cc(N)cc(C(F)(F)F)c3)c2cc1[C@H]1CC[C@H](C(=O)N2CCN(CC3CCC4(CC3)CCN(C(=O)c3ccc(N5CCC(=O)NC5=O)cc3)CC4)CC2)CC1 [Example 22, 1-(4-(9-((4-((1R,4R)-4-(4-(((R)-1-(3-amino-5-(trifluoromethyl)phenyl)ethyl)amino)-7-methoxy-2-methylquinazolin-6-yl)cyclohexane-1-carbonyl)piperazin-1-yl)methyl)-3-azaspiro[5.5]undecane-3-carbonyl)phenyl)dihydropyrimidine-2,4(1H,3H)-dione] |  | 
1 to 10 | 30 to 50 | COc1cc2nc(C)nc(N[C@H](C)c3cc(N)cc(C(F)(F)F)c3)c2cc1[C@H]1CC[C@H](C(=O)N2CCN(CCC3CCN(C(=O)c4ccc(Cl)c(N5CCC(=O)NC5=O)c4)CC3)CC2)CC1 [Example 12, 1-(5-(4-(2-(4-((1R,4R)-4-(4-(((R)-1-(3-amino-5-(trifluoromethyl)phenyl)ethyl)amino)-7-methoxy-2-methylquinazolin-6-yl)cyclohexane-1-carbonyl)piperazin-1-yl)ethyl)piperidine-1-carbonyl)-2-chlorophenyl)dihydropyrimidine-2,4(1H,3H)-dione] |  | 
1 to 10 | < 30 | COc1cc2nc(C)nc(N[C@H](C)c3cc(N)cc(C(F)(F)F)c3)c2cc1O[C@H]1CC[C@H](C(=O)N2CCN(CC3CCC4(CC3)CCN(C(=O)c3ccc(Cl)c(N5CCC(=O)NC5=O)c3)CC4)CC2)CC1 [Example 31, 1-(5-(9-((4-((1R,4R)-4-((4-(((R)-1-(3-amino-5-(trifluoromethyl)phenyl)ethyl)amino)-7-methoxy-2-methylquinazolin-6-yl)oxo)cyclohexane-1-carbonyl)piperazin-1-yl)methyl)-3-azaspiro[5.5]undecane-3-carbonyl)-2-chlorophenyl)dihydropyrimidine-2,4(1H,3H)-dione] |  | 
